Where a name gives a salt, the structure may show the parent alone.
Target: Sphingosine 1-phosphate receptor 1 (Homo sapiens, UniProt P21453)
Assay: S1P1 agonism potentiation – cell-based, potentiator mode, 60K MLSMR set, dose response (AID 466)
Conditions: not given

Sequence of Sphingosine 1-phosphate receptor 1 (P21453 whole entry): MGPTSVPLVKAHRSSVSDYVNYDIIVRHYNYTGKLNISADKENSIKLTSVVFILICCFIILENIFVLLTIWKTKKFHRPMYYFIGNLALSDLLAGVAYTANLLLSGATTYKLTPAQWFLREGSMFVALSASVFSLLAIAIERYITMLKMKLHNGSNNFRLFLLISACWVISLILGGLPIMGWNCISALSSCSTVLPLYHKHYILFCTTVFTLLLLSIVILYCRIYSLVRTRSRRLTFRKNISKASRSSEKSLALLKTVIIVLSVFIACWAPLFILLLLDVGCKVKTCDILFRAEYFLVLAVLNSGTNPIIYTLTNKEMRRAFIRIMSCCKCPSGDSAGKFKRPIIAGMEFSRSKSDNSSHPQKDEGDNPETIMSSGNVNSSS

Compared with `CCc1oc2ccccc2c1C(=O)c1cc(Br)c(O)c(Br)c1`, `COc1ccc(CCNc2ncnc3c2oc2ccccc23)cc1OC` [MLS000041708] is 8.5-fold lower in EC50: 5.13 µM for the first, 0.601 µM for the second. The second is the more potent here.

`c1ccc2c(c1)oc1c(N3CCN(Cc4ccc5c(c4)OCO5)CC3)ncnc12` and `Fc1ccc2[nH]c3c(N4CCN(c5ccccc5)CC4)ncnc3c2c1` are within 1.5-fold of each other in EC50: 6.55 µM for the first, 9.52 µM for the second.

Compared with `CCOc1cc(C2NCc3ccccc3-n3cccc32)ccc1O` (stereo not drawn) [4-(5,6-dihydro-4H-pyrrolo[1,2-a][1,4]benzodiazepin-4-yl)-2-ethoxy-phenol;hydrochloride], `COc1ccccc1Oc1ccc2c(c1)C(=O)N(c1cccc(O)c1)C2=O` [2-(3-hydroxyphenyl)-5-(2-methoxyphenoxy)isoindole-1,3-dione] is 7-fold lower in EC50: 15 µM for the first, 2.14 µM for the second.

`CN(C)c1ccnc2sc3c(=O)n(Cc4ccccc4)cnc3c12` [3-Benzyl-9-dimethylamino-3H-pyrido[3',2':4,5]thieno[3,2-d]pyrimidin-4-one] and `COCCN(C(=O)c1ccccc1)c1nnc(-c2cccnc2)s1` [MLS000032523] are within 1.5-fold of each other in EC50: 3.37 µM for the first, 4.83 µM for the second.

Going from `COc1ccccc1N=C(N)Nc1nc(CSc2ccc(C)cc2)cc(=O)[nH]1` [1-(2-methoxyphenyl)-2-[6-[[(4-methylphenyl)thio]methyl]-4-oxo-1H-pyrimidin-2-yl]guanidine] to `COc1ccccc1Oc1ccc2c(c1)C(=O)N(c1ccc(O)cc1)C2=O` [2-(4-hydroxyphenyl)-5-(2-methoxyphenoxy)isoindole-1,3-dione], the EC50 falls from 9.15 µM to 0.151 µM (61-fold).

`CCOC(=O)c1sc2nc(NC(=O)C3CCCCC3)sc2c1C` [2-(cyclohexanecarbonylamino)-6-methyl-thieno[2,3-d]thiazole-5-carboxylic acid ethyl ester] and `Cc1cccc(-n2ncc3c(N(C)C4CCCCC4)ncnc32)c1` [MLS000100814] cannot be ordered by EC50: greater than 30 µM for the first, greater than 95 µM for the second.

`CCCCOc1ccc(S(=O)(=O)Nc2cccnc2)cc1` [4-butoxy-N-(3-pyridinyl)benzenesulfonamide] and `O=S(=O)(Nc1ccc2c(c1)OCCO2)c1ccc2oc3ccccc3c2c1` [MLS000051884] are within 1.5-fold of each other in EC50: 8.55 µM for the first, 7.43 µM for the second.

Going from `Cc1cc(C(=O)CSc2nnc(-c3ccncc3)n2-c2ccccc2)c(C)n1C` [2-[(4-phenyl-5-pyridin-4-yl-1,2,4-triazol-3-yl)sulfanyl]-1-(1,2,5-trimethylpyrrol-3-yl)ethanone] to `Cc1ccccc1-n1c(SCC(=O)c2cc(C)n(C)c2C)nnc1-c1ccncc1` [2-[[4-(2-methylphenyl)-5-pyridin-4-yl-1,2,4-triazol-3-yl]sulfanyl]-1-(1,2,5-trimethylpyrrol-3-yl)ethanone], the EC50 rises from 2.23 µM to greater than 95 µM.

Compared with `CCOC(=O)CN(C(=O)CSc1nnc(-c2cccc(OC)c2)o1)c1ccc(F)cc1` [((4-Fluoro-phenyl)-{2-[5-(3-methoxy-phenyl)-[1,3,4]oxadiazol-2-ylsulfanyl]-acetyl}-amino)-acetic acid ethyl ester], `O=C(CSc1nnc(-c2c[nH]c3ccccc23)o1)N(Cc1ccccc1)c1ccc(F)cc1` is 2.5-fold lower in EC50: 2.11 µM for the first, 0.837 µM for the second.

`O=C(Nc1cccc(C(F)(F)F)c1)N1CCC(c2nc(-c3ccc(F)cc3)no2)CC1` [4-[3-(4-Fluoro-phenyl)-[1,2,4]oxadiazol-5-yl]-piperidine-1-carboxylic acid (3-trifluoromethyl-phenyl)-amide] and `Cc1cc(C(=O)Nc2sc(C)c(-c3ccc(F)cc3)c2C(N)=O)no1` [MLS000043467] are within 1.5-fold of each other in EC50: 6.42 µM for the first, 5.47 µM for the second.

Compared with `Cc1cccc(OCCCCc2c(C)n[nH]c2C)c1C` [SMR000103133], `CCCCOc1ncnc2c1[nH]c1ccc(F)cc12` [4-butoxy-8-fluoranyl-5H-pyrimido[5,4-b]indole] is 1.6-fold lower in EC50: 4.86 µM for the first, 3.07 µM for the second. The second is the more potent here.

Compared with `COc1ccc(-c2nc(-c3ccncc3)no2)cc1OC` [5-(3,4-dimethoxyphenyl)-3-(4-pyridyl)-1,2,4-oxadiazole], `COc1cc(CSc2nnnn2-c2ccc(C)cc2)cc(OC)c1OC` [1-(4-methylphenyl)-5-[(3,4,5-trimethoxybenzyl)thio]-1H-tetrazole] is 2.4-fold higher in EC50: 1.2 µM for the first, 2.87 µM for the second. The first is the more potent here.

Going from `Cc1nc(NC(C)c2ccccc2)c2oc3ccccc3c2n1` (stereo not drawn) [(2-methylbenzofuro[3,2-d]pyrimidin-4-yl)-(1-phenylethyl)amine] to `COC(=O)c1cc(CSc2nnc(-c3ccccc3)c(-c3ccccc3)n2)oc1C` [5-[[(5,6-diphenyl-1,2,4-triazin-3-yl)thio]methyl]-2-methyl-3-furancarboxylic acid methyl ester], the EC50 falls from 9.78 µM to 1.05 µM (9.3-fold). The second is the more potent here.

Going from `Nc1nonc1C(=O)NCCNCc1cc(Br)ccc1OCc1ccccc1F` [4-amino-N-[2-[[5-bromo-2-(2-fluorobenzyl)oxy-benzyl]amino]ethyl]furazan-3-carboxamide;hydrochloride] to `CC1=NC(=O)NC(c2ccc(F)cc2)C1C(=O)OCc1ccc2c(c1)OCO2` (stereo not drawn) [1,3-benzodioxol-5-ylmethyl 4-(4-fluorophenyl)-6-methyl-2-oxidanylidene-3,4-dihydro-1H-pyrimidine-5-carboxylate], the EC50 falls from 8.9 µM to 0.631 µM (14-fold).

Compared with `CC(C)(C)OC(=O)N[C@@H](Cc1ccccc1)c1nnc(S(=O)(=O)Cc2cccc(F)c2)o1` [tert-butyl N-[(1S)-1-[5-[(3-fluorophenyl)methylsulfonyl]-1,3,4-oxadiazol-2-yl]-2-phenylethyl]carbamate], `O=C(CSc1nc2ccccc2o1)Nc1ccc(N2CCOCC2)c(Cl)c1` [2-(1,3-benzoxazol-2-ylsulfanyl)-N-(3-chloranyl-4-morpholin-4-yl-phenyl)ethanamide] is 7.9-fold lower in EC50: 9.88 µM for the first, 1.25 µM for the second. The second is the more potent here.

Going from `Cc1ccc(-c2csc3ncnc(Sc4nnc(CN5CCCCCC5=O)o4)c23)cc1` [1-[[5-[5-(4-methylphenyl)thieno[2,3-d]pyrimidin-4-yl]sulfanyl-1,3,4-oxadiazol-2-yl]methyl]azepan-2-one] to `Clc1ccccc1C1=Nn2c(nnc2-c2ccncc2)SC1` [6-(2-chlorophenyl)-3-(4-pyridyl)-7H-[1,2,4]triazolo[3,4-b][1,3,4]thiadiazine], the EC50 rises from 2.6 µM to 5.66 µM (2.2-fold). The first is the more potent here.

First: N#Cc1ccc(NC(=O)Nc2ccc(Cl)cc2)cc1 [1-(4-chlorophenyl)-3-(4-cyanophenyl)urea]
Second: Cc1[nH]nc2c1C1(C(=O)N(Cc3ccc(Cl)cc3)c3ccccc31)C(C#N)C(=N)O2 (stereo not drawn) [6-amino-1'-[(4-chlorophenyl)methyl]-3-methyl-2'-oxo-5-spiro[2H-pyrano[2,3-c]pyrazole-4,3'-indole]carbonitrile]
The EC50 of the first is 5.5-fold lower: 7.91 µM for the first, 43.6 µM for the second. The first is the more potent here.

First: COc1ccc(S(=O)(=O)N2CCN(c3ccc(C)cc3C)CC2)cc1OC [1-(3,4-dimethoxyphenyl)sulfonyl-4-(2,4-dimethylphenyl)piperazine]
Second: COc1ccc(-c2cn3c(C)c(C(=O)Nc4ccncc4)sc3n2)cc1 [6-(4-methoxyphenyl)-3-methyl-N-(4-pyridyl)imidazo[2,1-b]thiazole-2-carboxamide]
The EC50 of the first is lower: 7.77 µM for the first, greater than 10 µM for the second. The first is the more potent here.

Going from `O=S1(=O)Nc2c(ccc3cccnc23)-c2ccccc21` [5H-quinolino[8,7-c][1,2]benzothiazine 6,6-dioxide] to `Cn1ncnc2c(=O)n(C)c(=O)nc1-2`, the EC50 falls from 3.22 µM to 1.73 µM (1.9-fold). The second is the more potent here.

Same assay, conditions: inactive by the depositor's call

First: CCCn1c(CNc2ccc(Br)cc2)nc2ccccc21 [(4-bromophenyl)-[(1-propylbenzimidazol-2-yl)methyl]amine]
Second: CCCCCn1c(=O)c(C(=O)NCc2ccncc2)c(O)c2ccccc21 [1-amyl-2-hydroxy-4-keto-N-(4-pyridylmethyl)quinoline-3-carboxamide]
The EC50 of the first is 1.9-fold lower: 12.8 µM for the first, 24.4 µM for the second. The first is the more potent here.

`CCN(CC)C(=O)Oc1ccc2c(=O)c(-c3ccccc3)coc2c1` [(4-oxidanylidene-3-phenyl-chromen-7-yl) N,N-diethylcarbamate] and `CCCc1cc2c(=O)c(-c3ccccn3)coc2cc1OC` [7-methoxy-6-propyl-3-(2-pyridinyl)-1-benzopyran-4-one] are within 1.5-fold of each other in EC50: 27.2 µM for the first, 37.1 µM for the second.

First: CCCOc1ccc(-c2nnc(-c3ccncc3)o2)cc1 [2-(4-propoxyphenyl)-5-(4-pyridyl)-1,3,4-oxadiazole]
Second: Clc1ccc(CSc2nnc(-c3ccncc3)o2)c(Cl)c1 [2-[(2,4-dichlorobenzyl)thio]-5-(4-pyridyl)-1,3,4-oxadiazole]
The EC50 of the first is 1.7-fold higher: 66.5 µM for the first, 38.5 µM for the second.

`CCOc1cc(-c2noc(-c3cccnc3)n2)ccc1OC` [3-(3-ethoxy-4-methoxy-phenyl)-5-(3-pyridyl)-1,2,4-oxadiazole] and `COc1ccc(Cc2nc(-c3ccc(-n4cccc4)cc3)no2)cc1OC` [3-(4-pyrrol-1-ylphenyl)-5-veratryl-1,2,4-oxadiazole] are within 1.5-fold of each other in EC50: 18.2 µM for the first, 13.4 µM for the second.

`Cc1cccc(OCCCCc2c(C)n[nH]c2C)c1` [SMR000103102] and `Cc1cc(C)n(-c2nc3ccccc3c(=O)n2OCCOc2ccccc2)n1` [2-(3,5-dimethyl-1-pyrazolyl)-3-(2-phenoxyethoxy)-4-quinazolinone] are within 1.5-fold of each other in EC50: 10.6 µM for the first, 15 µM for the second.

`CCOc1nc(-c2ccccc2)ccc1-c1noc(-c2ccco2)n1` [2-Ethoxy-3-(5-furan-2-yl-[1,2,4]oxadiazol-3-yl)-6-phenyl-pyridine] and `Cc1onc(-c2ccccc2Cl)c1C(=O)Oc1cc(N)n(S(=O)(=O)c2ccc(F)cc2)n1` [3-(2-chlorophenyl)-5-methyl-4-isoxazolecarboxylic acid [5-amino-1-(4-fluorophenyl)sulfonyl-3-pyrazolyl] ester] are within 1.5-fold of each other in EC50: 14.8 µM for the first, 20 µM for the second.

First: CN1c2ccccc2C(C)(C)C12C=Cc1cc(O)ccc1O2 (stereo not drawn) [1',3',3'-trimethyl-6-spiro[1-benzopyran-2,2'-indole]ol]
Second: COc1ccc(-n2c(C)c(C(C)=O)c3cc(O)ccc32)cc1 [1-[1-(4-methoxyphenyl)-2-methyl-5-oxidanyl-indol-3-yl]ethanone]
The EC50 of the first is 2-fold lower: 12.3 µM for the first, 24.2 µM for the second. The first is the more potent here.

`CC1Cc2cc(-c3csc(NC(=O)Cc4cccs4)n3)ccc2N1S(C)(=O)=O` (stereo not drawn) [MLS000027766] and `Cc1ccccc1OCC(=O)Nc1ccc(N2CCN(C(=O)C(C)C)CC2)c(Cl)c1` [MLS000034491] are within 1.5-fold of each other in EC50: 10.4 µM for the first, 15.2 µM for the second.

Compared with `CCCC(=O)Nc1ccc(-c2nc3cc(C)c(C)cc3o2)cc1` [MLS000089940], `CCN(CC)S(=O)(=O)c1cc(C(=O)Nc2ccncc2)ccc1Cl` [4-chloranyl-3-(diethylsulfamoyl)-N-pyridin-4-yl-benzamide] is 4.1-fold higher in EC50: 10.8 µM for the first, 44.2 µM for the second. The first is the more potent here.

`CCC(C)OC(=O)c1[nH]c2c(c1C)C(=O)CC(c1ccc(N(C)C)cc1)C2` (stereo not drawn) [MLS000116530] and `CC(C)Cn1c(=O)c(C(=O)Nc2ccccc2S(N)(=O)=O)c(O)c2ccccc21` [1-(2-methylpropyl)-2-oxidanyl-4-oxidanylidene-N-(2-sulfamoylphenyl)quinoline-3-carboxamide] are within 1.5-fold of each other in EC50: 18 µM for the first, 14.4 µM for the second.

From BindingDB's records for doi:10.7270/Q2ZC817P (The Scripps Research Institute Molecular Screening Center, 2007)
